Laboratory results reported in patent US6342582B1, “Reaction and dissolving medium for peptides and synthesis method using this medium” (Rhodia Chimie, priority 1990, dated 2002).
Where a name gives a salt, the structure may show the parent alone. One block for each compound: values may come before it. Where a SMILES comes first, the peptide text is derived from it. The star is where a group is joined. OBn = c1ccc(CO*)cc1

Legend:
[1] = Dissolving experiments: solubility of the peptide intermediate in solvent or solvent/additive mixture; conditions: 25° C.; for Solubility in the 4/1 dichloromethane/phenol mixture: 4/1 dichloromethane/phenol by weight; for Solubility in 4/1 dichloromethane/dimethylformamide: comparison, additive not part of the invention
Protocol: Protocol for dissolving experiments
The solubilities of the peptide intermediate were determined as follows, at a temperature of 25° C.
An accurately weighed amount of the peptide intermediate is placed in a Pyrex tube. The solvent or mixture of solvents to be tested is then introduced using a precision pipette so as to obtain a ratio of mass of peptide/volume of solvent of 8 g/100 cm^3.
The tube, closed by a screw stopper, is then placed on a HEIDOLPH agitator, TOP-MIX model, vibrating at its maximum speed for 60 seconds.
If not, the volume of solvent is doubled and the procedure is started again.
At the end of 4 successive dilutions without complete dissolution, the measurements are repeated on a smaller amount of solid.
Remarks: The composition of the solvent/additive mixtures is expressed by weight.

[2] = Solubility in dichloromethane determined by HPLC, external standardization, on a saturated solution; type: physicochemical
Protocol: The solubility in dichloromethane was determined by HPLC, using external standardization, on a saturated solution of Boc-Gly5-OCH3.
The solubility in dichloromethane was determined by HPLC, by external standardization on the supernatant of a saturated solution; the other solubilities were determined as in Example 1: […]

[3] = Distribution of the peptide between dichloromethane (with phenol) and water; type: physicochemical; conditions: dichloromethane (12 cm^3) + 3.9 g phenol / aqueous KHCO3 2 N (3 cm^3); HPLC
Protocol: With a view to purification of this tetrapeptide, by washing with water at the end of its synthesis, the distribution of this peptide between dichloromethane and water was studied as follows.
A solution of Gly-Gly-Phe-Leu-OBzl hydrochloride (0.9 mmole) in dichloromethane (12 cm^3) is stirred vigorously in the presence of an aqueous KHCO3 solution (2 N; 3 cm^3). This mixture yields an emulsion which remains stable for several days. A comparative experiment was carried out in the presence of phenol:
A distribution experiment carried out in accordance with Example 15 after the addition of 3.9 g of phenol to the organic solution yields, after identical stirring, two clear liquid phases, the settling out of which is complete in less than 15 minutes.

[4] = comparison additive, concentrations lower than 2 g/100 cm^3 were not tested

Solubility in the 4/1 dichloromethane/phenol mixture [1]: s = 2 g/100 cm^3 | Solubility in dichloromethane [1]: s < 0.05 g/100 cm^3
Structure (SMILES): NC(N)=NCCC[C@H](N)C(=O)N1CCC[C@H]1C(=O)O [Afg-Pro.2HCl, L-arginyl-L-proline dihydrochloride] (H-Arg-Pro-OH)

Structure (SMILES): COC(=O)CNC(=O)CNC(=O)CNC(=O)CNC(=O)CNC(=O)OC(C)(C)C [Boc-Gly5-OCH3, N-tert-butoxycarbonylpentaglycine methyl ester]
Solubility in 2-chlorophenol ([1]; 2-chlorophenol alone): s > 8 g/100 cm^3 | Solubility in 4/1 anisole/phenol ([1]; 4/1 anisole/phenol by weight): s = 4 g/100 cm^3 | Solubility in the 4/1 dichloromethane/phenol mixture [1]: s = 4 g/100 cm^3 | Solubility in 20/1 dichloromethane/phenol ([1]; 20/1 dichloromethane/phenol by weight): s = 0.5 g/100 cm^3 | Solubility in anisole ([1]; anisole): s < 0.05 g/100 cm^3 | Solubility in dichloromethane (HPLC) [2]: s = 0.33 g/100 cm^3

Structure (SMILES): CC(C)(C)OC(=O)NCC(=O)NCC(=O)NCC(=O)NCC(=O)NCC(=O)OCc1ccccc1 [Boc-Gly-Gly-Gly-Gly-Gly-O-CH2-Ph, N-tert-butoxycarbonylpentaglycine benzyl ester]
Solubility in 9/1 dichloromethane/phenol ([1]; 9/1 dichloromethane/phenol by weight): s > 5 g/100 cm^3 | Solubility in 9/1 dichloromethane/2-octanol [1, 4]: s < 2 g/100 cm^3 | Solubility in 9/1 dichloromethane/dimethylformamide [1, 4]: s < 2 g/100 cm^3 | Solubility in 9/1 dichloromethane/pivalic acid [1, 4]: s < 2 g/100 cm^3 | Solubility in 9/1 dichloromethane/trifluoroethanol [1, 4]: s < 2 g/100 cm^3 | Solubility in dichloromethane saturated with LiCl [1, 4]: s < 2 g/100 cm^3 | Solubility in dichloromethane (HPLC) [2]: s = 0.07 g/100 cm^3

Share of the tetrapeptide employed found in the aqueous phase [3]: 0.4%
Structure (SMILES): CC(C)C[C@H](NC(=O)[C@H](Cc1ccccc1)NC(=O)CNC(=O)CN)C(=O)OCc1ccccc1 [Gly-Gly-Phe-Leu-OBzl, Glycyl-glycyl-L-phenylalanyl-L-leucine benzyl ester] (H-GGFL-OBn)

Structure (SMILES): N[C@@H](Cc1c[nH]cn1)C(=O)N[C@@H](Cc1c[nH]c2ccccc12)C(=O)O [His,Trp.HCl, L-histidinyl-L-tryptophan hydrochloride]
Solubility in the 4/1 dichloromethane/phenol mixture [1]: s = 2 g/100 cm^3 | Solubility in dichloromethane [1]: s < 0.05 g/100 cm^3

Solubility in 4/1 dichloromethane/3-trifluoromethylphenol ([1]; 4/1 dichloromethane/3-trifluoromethylphenol by weight): s = 4 g/100 cm^3 | Solubility in 4/1 dichloromethane/4-methoxyphenol ([1]; 4/1 dichloromethane/4-methoxyphenol by weight): s = 4 g/100 cm^3 | Solubility in 4/1 dichloromethane/dimethylformamide [1]: s < 0.5 g/100 cm^3 | Solubility in the 4/1 dichloromethane/phenol mixture [1]: s = 4 g/100 cm^3 | Solubility in 5/1 dichloromethane/2-hydroxypyridine ([1]; 5/1 dichloromethane/2-hydroxypyridine by weight): s = 1 g/100 cm^3 | Solubility in dichloromethane [1]: s < 0.05 g/100 cm^3
Structure (SMILES): CC(C)C[C@H](N)C(=O)N[C@@H](CCCNC(=N)N)C(=O)N1CCC[C@H]1C(=O)NCC(N)=O [Leu-Arg-Pro-Gly-NH2.HCl, L-leucyl-L-arginyl-L-prolyl-glycinamide hydro-chloride] (H-LRPG-NH2)

Structure (SMILES): NC(=O)CNC(=O)[C@@H]1CCCN1 [Pro-Gly-NH2.HCl, L-prolyl-glycinamide hydrochloride] (H-Pro-Gly-NH2)
Solubility in 4/1 dichloromethane/dimethylformamide [1]: s < 0.5 g/100 cm^3 | Solubility in the 4/1 dichloromethane/phenol mixture [1]: s > 16 g/100 cm^3 | Solubility in dichloromethane [1]: s < 0.05 g/100 cm^3

Structure (SMILES): COC(=O)[C@H](Cc1ccc(O)cc1)NC(=O)[C@@H](N)CO [Ser-Tyr-OCH3.HCl, L-serinyl-L-tyrosine methyl ester hydrochloride] (H-Ser-Tyr-OMe)
Solubility in dichloromethane [1]: s < 0.05 g/100 cm^3
